Values quoted from earlier work as cited in paper PMC8426237, “A first-in-human phase I study of TAS0728, an oral covalent binding inhibitor of HER2, in patients with advanced solid tumors with HER2 or HER3 aberrations” (Investigational New Drugs, 2021).
Like-named read-outs stand apart in the source and are kept apart here.

Conditions: cited from earlier work; for Diarrhea toxicity grade: HER2-positive breast cancer; for Diarrhea in patients: approved oral HER2-inhibitory compounds

Row | Structure (SMILES) | Diarrhea toxicity grade (LUX-BREAST-1/−3 studies) | Diarrhea in patients | Diarrhea toxicity grade (ExteNET trial) | Response of patients with tumors harboring HER2 G778_P780dup
1 | CN(C)C/C=C/C(=O)Nc1cc2c(Nc3ccc(F)c(Cl)c3)ncnc2cc1O[C@H]1CCOC1 [afatinib] | Grade 3 or 4 | associated with severe diarrhea |  | 
2 | CS(=O)(=O)CCNCc1ccc(-c2ccc3ncnc(Nc4ccc(OCc5cccc(F)c5)c(Cl)c4)c3c2)o1 [lapatinib] |  | associated with severe diarrhea |  | 
3 | CCOc1cc2ncc(C#N)c(Nc3ccc(OCc4ccccn4)c(Cl)c3)c2cc1NC(=O)/C=C/CN(C)C [neratinib] |  | associated with severe diarrhea | Grade 3 or 4 | respond to treatment
4 | Cc1cc(Nc2ncnc3ccc(NC4=NC(C)(C)CO4)cc23)ccc1Oc1ccn2ncnc2c1 [tucatinib] |  | associated with severe diarrhea |  | 
